Like-named read-outs stand apart in the source and are kept apart here.
Key:
Assay in all cases: KINOMEscan ScanTK
Format in all cases: binding
AXL = target: T1, AXL (Homo sapiens, UniProt P30530)
T1 construct: purchased Eurofins DiscoverX KINOMEscan (scanTK)
T1 sequence (P30530 26-894): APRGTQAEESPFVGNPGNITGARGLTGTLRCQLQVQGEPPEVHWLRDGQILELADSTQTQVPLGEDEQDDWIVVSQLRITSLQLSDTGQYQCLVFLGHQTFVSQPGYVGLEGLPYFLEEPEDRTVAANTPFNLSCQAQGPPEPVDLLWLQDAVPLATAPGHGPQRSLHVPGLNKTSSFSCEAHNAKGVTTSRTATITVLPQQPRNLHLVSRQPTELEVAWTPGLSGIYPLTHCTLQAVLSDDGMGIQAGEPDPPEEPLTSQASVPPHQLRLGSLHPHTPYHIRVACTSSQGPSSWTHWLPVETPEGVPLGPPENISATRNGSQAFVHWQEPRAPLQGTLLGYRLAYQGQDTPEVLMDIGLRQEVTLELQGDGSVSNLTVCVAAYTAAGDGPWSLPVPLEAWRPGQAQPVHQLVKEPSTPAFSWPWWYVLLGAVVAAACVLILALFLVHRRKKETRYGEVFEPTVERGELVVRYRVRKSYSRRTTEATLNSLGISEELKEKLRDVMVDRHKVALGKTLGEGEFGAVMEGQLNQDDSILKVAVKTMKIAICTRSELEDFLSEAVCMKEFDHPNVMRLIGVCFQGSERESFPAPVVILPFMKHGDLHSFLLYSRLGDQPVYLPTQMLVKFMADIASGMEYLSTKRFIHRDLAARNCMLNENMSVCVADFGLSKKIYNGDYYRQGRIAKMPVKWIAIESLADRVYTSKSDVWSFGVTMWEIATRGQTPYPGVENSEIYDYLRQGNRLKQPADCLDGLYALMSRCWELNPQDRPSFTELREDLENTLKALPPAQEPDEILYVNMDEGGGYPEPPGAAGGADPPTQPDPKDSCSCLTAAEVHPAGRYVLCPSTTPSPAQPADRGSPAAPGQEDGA

PDGFRA = target: T2, PDGFRA (Homo sapiens, UniProt P16234)
T2 construct: purchased Eurofins DiscoverX KINOMEscan (scanTK)

DDR1 = target: T3, DDR1 (Homo sapiens, UniProt Q08345)
T3 construct: purchased Eurofins DiscoverX KINOMEscan (scanTK)

BTK = target: T4, BTK (Homo sapiens, UniProt Q06187); conditions: for remaining binding at 1 µM: BTK; for inhibition at 1 µM: ScanTK
T4 construct: purchased Eurofins DiscoverX KINOMEscan (scanTK)

MST1R = target: T5, MST1R (Homo sapiens, UniProt Q04912)
T5 construct: purchased Eurofins DiscoverX KINOMEscan (scanTK)
T5 sequence (Q04912 25-1400): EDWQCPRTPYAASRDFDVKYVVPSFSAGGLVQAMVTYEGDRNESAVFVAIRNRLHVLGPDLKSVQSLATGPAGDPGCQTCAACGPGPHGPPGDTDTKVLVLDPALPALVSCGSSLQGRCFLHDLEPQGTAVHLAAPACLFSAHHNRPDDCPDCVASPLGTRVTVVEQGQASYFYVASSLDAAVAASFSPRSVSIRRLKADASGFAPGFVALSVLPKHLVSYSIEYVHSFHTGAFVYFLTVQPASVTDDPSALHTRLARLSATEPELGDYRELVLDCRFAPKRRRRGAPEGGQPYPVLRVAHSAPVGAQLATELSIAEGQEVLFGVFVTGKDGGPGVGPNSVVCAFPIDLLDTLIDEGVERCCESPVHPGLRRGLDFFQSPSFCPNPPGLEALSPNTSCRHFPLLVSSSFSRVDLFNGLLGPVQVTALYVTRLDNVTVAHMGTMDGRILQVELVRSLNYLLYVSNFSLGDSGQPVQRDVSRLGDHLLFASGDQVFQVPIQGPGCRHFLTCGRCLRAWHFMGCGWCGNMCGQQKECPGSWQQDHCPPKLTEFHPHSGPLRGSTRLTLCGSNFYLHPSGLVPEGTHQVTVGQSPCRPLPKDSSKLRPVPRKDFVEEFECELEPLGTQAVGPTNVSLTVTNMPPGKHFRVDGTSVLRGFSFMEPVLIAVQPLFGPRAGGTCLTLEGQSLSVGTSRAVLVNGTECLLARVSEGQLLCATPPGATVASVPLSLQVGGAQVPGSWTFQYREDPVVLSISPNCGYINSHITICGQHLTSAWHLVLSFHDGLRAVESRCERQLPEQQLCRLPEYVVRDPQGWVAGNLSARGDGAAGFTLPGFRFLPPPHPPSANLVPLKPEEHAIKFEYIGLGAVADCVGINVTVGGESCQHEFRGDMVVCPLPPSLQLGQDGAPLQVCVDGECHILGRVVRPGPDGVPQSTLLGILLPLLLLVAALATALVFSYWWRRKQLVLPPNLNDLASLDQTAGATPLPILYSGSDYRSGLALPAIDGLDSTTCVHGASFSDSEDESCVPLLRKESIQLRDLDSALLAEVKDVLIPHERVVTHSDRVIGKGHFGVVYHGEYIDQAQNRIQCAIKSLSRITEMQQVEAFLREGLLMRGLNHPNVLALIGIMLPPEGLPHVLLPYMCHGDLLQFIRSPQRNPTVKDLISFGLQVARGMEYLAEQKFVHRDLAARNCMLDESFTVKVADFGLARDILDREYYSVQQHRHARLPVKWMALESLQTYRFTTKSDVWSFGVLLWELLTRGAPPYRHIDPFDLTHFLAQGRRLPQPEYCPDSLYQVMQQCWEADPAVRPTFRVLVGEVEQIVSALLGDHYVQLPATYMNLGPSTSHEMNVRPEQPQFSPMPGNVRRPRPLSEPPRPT

FLT3-autoinhibited = target: T6, FLT3-autoinhibited (Homo sapiens, UniProt P36888)
T6 construct: purchased Eurofins DiscoverX KINOMEscan (scanTK)
T6 sequence (P36888 27-993): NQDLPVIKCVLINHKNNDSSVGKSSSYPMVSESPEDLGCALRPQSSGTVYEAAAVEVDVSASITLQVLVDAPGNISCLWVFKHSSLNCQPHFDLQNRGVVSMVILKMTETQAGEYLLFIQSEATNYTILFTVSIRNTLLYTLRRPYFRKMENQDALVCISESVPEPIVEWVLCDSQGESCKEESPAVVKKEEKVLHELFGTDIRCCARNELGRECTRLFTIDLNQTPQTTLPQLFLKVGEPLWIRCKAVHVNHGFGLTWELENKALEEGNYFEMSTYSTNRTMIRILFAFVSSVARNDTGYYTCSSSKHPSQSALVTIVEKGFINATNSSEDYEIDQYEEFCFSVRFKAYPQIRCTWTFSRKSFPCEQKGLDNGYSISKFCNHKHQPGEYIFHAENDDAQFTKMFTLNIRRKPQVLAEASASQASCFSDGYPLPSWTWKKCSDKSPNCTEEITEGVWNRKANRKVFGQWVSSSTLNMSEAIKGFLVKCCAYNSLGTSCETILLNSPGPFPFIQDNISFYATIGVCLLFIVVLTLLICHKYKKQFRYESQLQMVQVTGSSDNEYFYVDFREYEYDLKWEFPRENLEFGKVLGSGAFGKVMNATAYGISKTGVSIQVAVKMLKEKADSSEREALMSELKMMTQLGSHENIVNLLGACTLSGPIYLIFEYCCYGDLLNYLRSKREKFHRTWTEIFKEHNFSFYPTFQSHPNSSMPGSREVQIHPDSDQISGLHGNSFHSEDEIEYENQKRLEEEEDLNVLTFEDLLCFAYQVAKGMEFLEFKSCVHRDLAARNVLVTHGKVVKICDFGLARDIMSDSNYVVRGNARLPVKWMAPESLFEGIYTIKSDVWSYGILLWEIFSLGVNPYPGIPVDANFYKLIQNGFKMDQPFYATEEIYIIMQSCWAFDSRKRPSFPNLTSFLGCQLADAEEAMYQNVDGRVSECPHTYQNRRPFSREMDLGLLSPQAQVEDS

EGFR(G719C) = target: T7, EGFR(G719C) (Homo sapiens, UniProt P00533, G719C)
T7 construct: purchased Eurofins DiscoverX KINOMEscan (scanTK)
T7 sequence (P00533 25-1210 G719C): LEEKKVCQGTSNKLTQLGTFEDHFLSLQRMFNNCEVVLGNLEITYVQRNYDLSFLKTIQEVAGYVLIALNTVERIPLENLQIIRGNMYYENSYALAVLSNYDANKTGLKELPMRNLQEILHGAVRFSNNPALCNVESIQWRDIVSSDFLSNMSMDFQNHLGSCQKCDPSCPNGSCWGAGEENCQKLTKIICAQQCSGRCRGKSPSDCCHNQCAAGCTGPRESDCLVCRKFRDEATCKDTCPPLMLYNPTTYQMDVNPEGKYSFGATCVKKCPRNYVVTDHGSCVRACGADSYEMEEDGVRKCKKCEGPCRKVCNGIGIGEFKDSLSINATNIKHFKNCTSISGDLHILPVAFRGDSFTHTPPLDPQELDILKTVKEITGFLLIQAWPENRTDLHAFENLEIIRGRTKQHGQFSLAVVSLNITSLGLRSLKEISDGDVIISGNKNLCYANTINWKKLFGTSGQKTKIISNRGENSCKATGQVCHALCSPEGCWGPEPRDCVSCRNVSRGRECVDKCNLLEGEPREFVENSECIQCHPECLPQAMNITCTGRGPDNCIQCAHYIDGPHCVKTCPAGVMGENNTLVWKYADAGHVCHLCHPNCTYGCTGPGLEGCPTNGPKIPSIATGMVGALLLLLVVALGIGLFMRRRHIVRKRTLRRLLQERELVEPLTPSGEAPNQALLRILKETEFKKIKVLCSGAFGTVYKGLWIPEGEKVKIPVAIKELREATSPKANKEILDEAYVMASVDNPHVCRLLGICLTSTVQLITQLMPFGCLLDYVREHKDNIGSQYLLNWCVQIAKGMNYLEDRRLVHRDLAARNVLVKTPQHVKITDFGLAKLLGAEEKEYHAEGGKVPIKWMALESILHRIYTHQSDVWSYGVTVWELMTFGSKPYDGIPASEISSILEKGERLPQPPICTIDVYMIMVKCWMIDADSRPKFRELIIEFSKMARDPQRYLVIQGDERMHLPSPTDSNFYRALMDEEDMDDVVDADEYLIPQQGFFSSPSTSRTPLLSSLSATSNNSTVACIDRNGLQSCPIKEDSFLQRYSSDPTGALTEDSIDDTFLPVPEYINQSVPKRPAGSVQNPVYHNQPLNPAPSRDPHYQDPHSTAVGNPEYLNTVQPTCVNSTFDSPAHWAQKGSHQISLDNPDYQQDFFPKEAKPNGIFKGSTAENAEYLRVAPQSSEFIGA

ABL1-nonphosphorylated = target: T8, ABL1-nonphosphorylated (Homo sapiens, UniProt P00519)
T8 construct: purchased Eurofins DiscoverX KINOMEscan (scanTK)
T8 sequence (P00519 whole entry): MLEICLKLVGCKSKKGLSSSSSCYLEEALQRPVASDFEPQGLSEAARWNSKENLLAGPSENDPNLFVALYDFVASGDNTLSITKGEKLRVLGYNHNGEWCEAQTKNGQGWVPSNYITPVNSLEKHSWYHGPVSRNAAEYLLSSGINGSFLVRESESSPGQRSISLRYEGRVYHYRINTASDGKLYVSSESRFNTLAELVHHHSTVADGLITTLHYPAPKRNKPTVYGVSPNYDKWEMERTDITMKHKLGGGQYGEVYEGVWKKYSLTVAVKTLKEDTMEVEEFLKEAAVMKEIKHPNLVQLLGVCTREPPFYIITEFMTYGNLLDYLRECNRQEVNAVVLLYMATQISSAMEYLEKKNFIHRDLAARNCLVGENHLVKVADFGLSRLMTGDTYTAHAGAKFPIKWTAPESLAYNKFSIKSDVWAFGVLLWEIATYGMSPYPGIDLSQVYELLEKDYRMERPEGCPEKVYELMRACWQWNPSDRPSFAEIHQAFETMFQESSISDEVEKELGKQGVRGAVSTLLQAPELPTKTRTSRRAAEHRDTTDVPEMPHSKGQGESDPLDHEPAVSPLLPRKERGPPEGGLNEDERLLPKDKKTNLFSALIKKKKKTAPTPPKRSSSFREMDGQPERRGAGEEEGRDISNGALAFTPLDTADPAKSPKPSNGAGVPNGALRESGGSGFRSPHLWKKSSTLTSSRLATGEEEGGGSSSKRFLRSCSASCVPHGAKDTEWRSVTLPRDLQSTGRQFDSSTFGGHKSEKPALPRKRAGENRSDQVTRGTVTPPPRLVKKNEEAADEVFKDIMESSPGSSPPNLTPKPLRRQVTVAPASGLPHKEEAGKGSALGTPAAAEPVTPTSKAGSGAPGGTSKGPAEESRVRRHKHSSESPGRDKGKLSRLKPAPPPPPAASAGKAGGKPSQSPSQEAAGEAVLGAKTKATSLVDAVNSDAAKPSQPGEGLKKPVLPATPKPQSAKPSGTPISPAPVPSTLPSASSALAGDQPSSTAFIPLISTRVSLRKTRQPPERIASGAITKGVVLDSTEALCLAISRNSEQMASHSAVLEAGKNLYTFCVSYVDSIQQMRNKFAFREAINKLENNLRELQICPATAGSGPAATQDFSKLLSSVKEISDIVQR

[1] = target: T9, ABL1(F317L)-phosphorylated (Homo sapiens, UniProt P00519, F317L)
T9 construct: purchased Eurofins DiscoverX KINOMEscan (scanTK)
T9 sequence (P00519 whole entry F317L): as the sequence (P00519 whole entry) above, with F317L counted along it

KIT(A829P) = target: T10, KIT(A829P) (Homo sapiens, UniProt P10721, A829P)
T10 construct: purchased Eurofins DiscoverX KINOMEscan (scanTK)
T10 sequence (P10721 26-976 A829P): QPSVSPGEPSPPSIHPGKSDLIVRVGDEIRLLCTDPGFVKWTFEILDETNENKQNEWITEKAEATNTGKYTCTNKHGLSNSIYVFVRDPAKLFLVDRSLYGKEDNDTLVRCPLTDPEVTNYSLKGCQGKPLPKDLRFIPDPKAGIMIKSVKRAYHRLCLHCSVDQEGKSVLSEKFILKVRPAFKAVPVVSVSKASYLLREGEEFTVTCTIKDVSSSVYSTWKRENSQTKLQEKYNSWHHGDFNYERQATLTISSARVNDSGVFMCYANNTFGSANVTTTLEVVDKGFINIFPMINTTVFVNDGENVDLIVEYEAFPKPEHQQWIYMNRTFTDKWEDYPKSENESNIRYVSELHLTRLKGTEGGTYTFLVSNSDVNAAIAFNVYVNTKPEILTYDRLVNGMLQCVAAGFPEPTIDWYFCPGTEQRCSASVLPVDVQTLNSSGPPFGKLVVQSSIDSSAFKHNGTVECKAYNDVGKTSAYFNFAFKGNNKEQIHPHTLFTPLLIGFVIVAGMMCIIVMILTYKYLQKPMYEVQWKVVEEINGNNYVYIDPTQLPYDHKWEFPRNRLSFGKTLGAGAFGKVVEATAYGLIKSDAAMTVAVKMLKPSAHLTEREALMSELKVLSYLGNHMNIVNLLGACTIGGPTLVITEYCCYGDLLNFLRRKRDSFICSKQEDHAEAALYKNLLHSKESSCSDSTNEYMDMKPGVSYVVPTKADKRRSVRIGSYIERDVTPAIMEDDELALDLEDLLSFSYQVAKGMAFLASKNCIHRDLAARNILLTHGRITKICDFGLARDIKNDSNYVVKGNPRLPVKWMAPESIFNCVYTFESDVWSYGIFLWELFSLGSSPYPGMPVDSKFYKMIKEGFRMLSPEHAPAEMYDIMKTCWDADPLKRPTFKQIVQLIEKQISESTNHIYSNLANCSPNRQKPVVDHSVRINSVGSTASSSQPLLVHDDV

KIT(V559D,V654A) = target: T11, KIT(V559D,V654A) (Homo sapiens, UniProt P10721, V559D/V654A)
T11 construct: purchased Eurofins DiscoverX KINOMEscan (scanTK)
T11 sequence (P10721 26-976 V559D/V654A): as the sequence (P10721 26-976 A829P) above, with V534D, V629A, P804A counted along it

[2] = @1000nM, read-out: % difference (compound - Ib %Control)

SMILES	remaining binding at 1 µM (AXL; @1000nM, read-out: %Control) [%]	remaining binding at 1 µM (AXL; read-out: %Control @1000nM) [%]	remaining binding at 1 µM (PDGFRA; @1000nM, read-out: %Control) [%]	remaining binding at 1 µM (PDGFRA; read-out: %Control @1000nM) [%]	remaining binding at 1 µM (DDR1; @1000nM, read-out: %Control) [%]	remaining binding at 1 µM (DDR1; read-out: %Control @1000nM) [%]	remaining binding at 1 µM (BTK; [2]) [%]	remaining binding at 1 µM (BTK; @1000nM, read-out: %Control) [%]	remaining binding at 1 µM (BTK; read-out: %Control @1000nM) [%]	inhibition at 1 µM (BTK) [%]	remaining binding at 1 µM (MST1R; @1000nM, read-out: %Control) [%]	remaining binding at 1 µM (MST1R; read-out: %Control @1000nM) [%]	difference in %Control vs compound Ib at 1 µM (FLT3-autoinhibited; @1000nM) [%]	remaining binding at 1 µM (FLT3-autoinhibited; @1000nM, read-out: %Control) [%]	remaining binding at 1 µM (FLT3-autoinhibited; read-out: %Control @1000nM) [%]	difference in %Control vs compound Ib at 1 µM (EGFR(G719C); @1000nM) [%]	remaining binding at 1 µM (EGFR(G719C); @1000nM, read-out: %Control) [%]	remaining binding at 1 µM (EGFR(G719C); read-out: %Control @1000nM) [%]	difference in %Control from reference compound Ib at 1 µM (ABL1-nonphosphorylated; @1000nM) [%]	remaining binding at 1 µM (ABL1-nonphosphorylated; @1000nM, read-out: %Control) [%]	other results
C=CC(=O)N1CCC[C@@H](n2nc(-c3ccc(Oc4ccccc4)cc3)c3c(N)ncnc32)C1 [Compound 1g, Ibrutinib, reference compound]	75	75	49	49	78	78	–	–	–	–	–	–	–	–	–	–	–	–	–	–	–
Cc1cnc(S(C)(=O)=O)nc1N1CCCC(n2nc(-c3ccc(Oc4ccccc4)cc3)c3c(N)ncnc32)C1 (stereo not drawn) [Compound 8a, 1-(1-(5-Methyl-2-(methylsulfonyl)pyrimidin-4-yl)piperidin-3-yl)-3-(4-phenoxyphenyl)-1H-pyrazolo[3,4-d]pyrimidin-4-amine]	100	100	72	72	83	83	0.1	0.1	0.1	> 99	100	100	-18	79	79	32.9	34	34	38.5	47	remaining binding at 1 µM (ABL1-nonphosphorylated; read-out: %Control @1000nM): 47%; difference in %Control versus compound Ib at 1 µM (AXL; @1000nM): 25%; difference in %Control from compound Ib at 1 µM ([1]; @1000nM): 15%; remaining binding at 1 µM ([1]; @1000nM, read-out: %Control): 52%; remaining binding at 1 µM ([1]; read-out: %Control @1000nM): 52%; remaining binding at 1 µM (KIT(A829P); @1000nM, read-out: %Control): 84%; remaining binding at 1 µM (KIT(A829P); read-out: %Control @1000nM): 84%; remaining binding at 1 µM (KIT(V559D,V654A); @1000nM, read-out: %Control): 90%; remaining binding at 1 µM (KIT(V559D,V654A); read-out: %Control @1000nM): 90%; difference in %Control from compound Ib at 1 µM (DDR1; @1000nM): 5%
COC(=O)c1cnc(S(C)(=O)=O)nc1N1CCCC(n2nc(-c3ccc(Oc4ccccc4)cc3)c3c(N)ncnc32)C1 (stereo not drawn) [Compound 8b, Methyl 4-(3-(4-Amino-3-(4-phenoxyphenyl)-1H-pyrazolo[3,4-d]pyrimidin-1-yl)piperidin-1-yl)-2-(methylsulfonyl)pyrimidine-5-carboxylate]	100	100	90	90	60	60	0.75	0.75	0.75	> 99	96	96	-7	90	90	1.7	2.8	2.8	56.5	65	remaining binding at 1 µM (ABL1-nonphosphorylated; read-out: %Control @1000nM): 65%; difference in %Control versus compound Ib at 1 µM (AXL; @1000nM): 25%; difference in %Control from compound Ib at 1 µM ([1]; @1000nM): 16%; remaining binding at 1 µM ([1]; @1000nM, read-out: %Control): 53%; remaining binding at 1 µM ([1]; read-out: %Control @1000nM): 53%; remaining binding at 1 µM (KIT(A829P); @1000nM, read-out: %Control): 70%; remaining binding at 1 µM (KIT(A829P); read-out: %Control @1000nM): 70%; remaining binding at 1 µM (KIT(V559D,V654A); @1000nM, read-out: %Control): 86%; remaining binding at 1 µM (KIT(V559D,V654A); read-out: %Control @1000nM): 86%; difference in %Control from compound Ib at 1 µM (DDR1; @1000nM): -18%
CCOC(=O)c1cnc(S(C)(=O)=O)nc1N1CCC[C@@H](n2nc(-c3ccc(Oc4ccccc4)cc3)c3c(N)ncnc32)C1 [Compound 8c, Ethyl (R)-4-(3-(4-Amino-3-(4-phenoxyphenyl)-1H-pyrazolo[3,4-d]pyrimidin-1-yl)piperidin-1-yl)-2-(methylsulfonyl)pyrimidine-5-carboxylate]	100	100	91	91	64	64	18	18	18	82	98	98	3	100	100	6.4	7.5	7.5	36.5	45	remaining binding at 1 µM (ABL1-nonphosphorylated; read-out: %Control @1000nM): 45%; difference in %Control versus compound Ib at 1 µM (AXL; @1000nM): 25%; difference in %Control from compound Ib at 1 µM ([1]; @1000nM): 49%; remaining binding at 1 µM ([1]; @1000nM, read-out: %Control): 86%; remaining binding at 1 µM ([1]; read-out: %Control @1000nM): 86%; remaining binding at 1 µM (KIT(A829P); @1000nM, read-out: %Control): 73%; remaining binding at 1 µM (KIT(A829P); read-out: %Control @1000nM): 73%; remaining binding at 1 µM (KIT(V559D,V654A); @1000nM, read-out: %Control): 97%; remaining binding at 1 µM (KIT(V559D,V654A); read-out: %Control @1000nM): 97%; difference in %Control from compound Ib at 1 µM (DDR1; @1000nM): -14%

Source: PMC11345841, “Exploring 2-Sulfonylpyrimidine Warheads as Acrylamide Surrogates for Targeted Covalent Inhibition: A BTK Story” (Journal of Medicinal Chemistry, 2024)
